Patent US6916843B1, “Anti-inflammatory actions of cytochrome P450 expoxygenase-derived eicosanoids” (The United States of America as represented by the …, priority 1999, dated 2005)

Legend:
[1] = test system: mononuclear cell adhesion to carotid artery; experiment: TNF-α-induced mononuclear cell (U937) adhesion in the murine carotid artery; assay type: in vivo; settings: mouse, intra-arterial infusion 100 ng/kg/min, TNF-α 10 μg/kg i.p., 5 hours
Description: FIG. 3A is a graph showing the expression of VCAM-1 in the murine carotid artery at 5 hours after treatment with intraperitaneal injection of TNF-α (10 μg/kg) alone or in combination with continuous intra-arterial infusion of [11,12]-EET (100 ng/kg/min). FIG. 3B is a bar graph showing the effect of [11,12]-EET on TNF-α induced mononuclear cell adhesion in the murine carotid artery. The mononuclear cells (U937) were perfused through the carotid artery at a wall shear stress of 3 dyn/cm^2. Intra-arterial infusion of vehicle (saline) or [14,15]-EET (100 ng/kg/min) had no effect. […] All experiments except the [14,15]-EET infusion were performed in duplicate.
To determine the functional relevance of EETs in vascular inflammation, we tested [11,12]-EET and its regioisomer [14,15]-EET in a recently developed in vivo model of TNF-α-induced VCAM-1 -mediated mononuclear cell adhesion in the murine carotid artery. […]
Cell rolling and adhesion were recorded on videotape using stroboscopic epifluoresence illumination with an introvital microscope (objective Zeiss 20×, 0.5 numerical aperture). […] In separate experiments, VCAM-1 expression was measured in paraffin-sections (5 μm thick) of carotid arteries harvested from mice treated in the same way. […]

[2] = test system: IκB kinase (IKK); experiment: IKK activity assay with GST-IκB-α substrate, TNF-α-stimulated endothelial cells; assay type: biochemical, human; settings: 100 nM, TNF-α 10 ng/ml, 15 min
Description: A set of gel shift assays was performed. […] In some assays, [11,12]-EET (100 nM) was also added directly to the IKK assay (in vitro). As a control for nonspecific phosphorylation, the assay was performed without the addition of immunoprecipitated IKK (no enzyme) or in the presence of a IκB-α mutant (ΔSer 32, Ser 36→Thr) as substrate. The assay was performed three times with similar results.
Specificity of IKB was determined by the complete absence of phosphorylation when the mutated IκB-α substrate, GST-1κB-α (Δ32,36: S→T) which cannot be phosphorylated at serine residues 32 and 36, was substituted for wild-type GST-IκB-α.

[3] = test system: VCAM-1 expression; experiment: Cell-surface enzyme immunoassay of cytokine-induced VCAM-1 expression in endothelial cells; assay type: cell-based, human; settings: 100 nM, 24 hours

CCCCC/C=C\C[C@H]1O[C@H]1C/C=C\C/C=C\CCCC(=O)O [[11,12]-EET]
mononuclear cell adhesion to the vessel wall [1]: inhibited | inhibition of TNF-α-induced IKK activity [2]: > 90% | inhibition of IL-1α-induced VCAM-1 expression ([3]; IL-1α): inhibited | inhibition of LPS-induced VCAM-1 expression ([3]; LPS 10 ng/ml): inhibited
